Test results from patent US20240050465A1, “HYDROGEN WATER FOR PREVENTION OF ALCOHOLIC HEPATOPATHY” (NIHON TRIM CO., LTD., priority 2021, published 2024).
Like-named read-outs stand apart in the source and are kept apart here.

Test system: HepG2 cells
Settings: 24 hours; for Cell viability: vs 0% ethanol
Protocol: A HepG2 cell line, which is human liver cancer-derived cells, was obtained from Riken Bioresource Research Center (RIKEN BRC) and cultured in DMEM containing 10% fetal bovine serum (FBS) (Sigma-Aldrich, F7524) and 1% penicillin-streptomycin (manufactured by FUJIFILM Wako Pure Chemical Corporation, trade name: 168-23191) under conditions of 37° C. and 5% CO2.

CCO [Ethanol, ethanol]
Viable cell count (HepG2, ethanol 0.25%): 9.48 × 10^4 cells/well
Cell viability (HepG2, ethanol 0.25%): 96.7%
Viable cell count (HepG2, ethanol 0.5%): 9.37 × 10^4 cells/well
Cell viability (HepG2, ethanol 0.5%): 95.6%
Viable cell count (HepG2, ethanol 1%): 8.22 × 10^4 cells/well
Cell viability (HepG2, ethanol 1%): 83.8%
Viable cell count (HepG2, ethanol 2%): 6.05 × 10^4 cells/well
Cell viability (HepG2, ethanol 2%): 61.7%
Viable cell count (HepG2, ethanol 4%): 4.87 × 10^4 cells/well
Cell viability (HepG2, ethanol 4%): 49.7%
Viable cell count (HepG2, ethanol 8%): 0.35 × 10^4 cells/well
Cell viability (HepG2, ethanol 8%): 3.6%
